Experimental data reported in patent US10670605B2, “Cysteine reactive probes and uses thereof” (The Scripps Research Institute, priority 2015, dated 2020).

Legend:
Experiment in all cases: Competitive isoTOP-ABPP in situ (fragment-treated cells)
Format in all cases: cell-based
[1] = molecular target: T1, cysteines in MDA-MB-231 and Ramos cells (Homo sapiens, UniProt Q9UKF6)
T1 sequence (Q9UKF6 1-684): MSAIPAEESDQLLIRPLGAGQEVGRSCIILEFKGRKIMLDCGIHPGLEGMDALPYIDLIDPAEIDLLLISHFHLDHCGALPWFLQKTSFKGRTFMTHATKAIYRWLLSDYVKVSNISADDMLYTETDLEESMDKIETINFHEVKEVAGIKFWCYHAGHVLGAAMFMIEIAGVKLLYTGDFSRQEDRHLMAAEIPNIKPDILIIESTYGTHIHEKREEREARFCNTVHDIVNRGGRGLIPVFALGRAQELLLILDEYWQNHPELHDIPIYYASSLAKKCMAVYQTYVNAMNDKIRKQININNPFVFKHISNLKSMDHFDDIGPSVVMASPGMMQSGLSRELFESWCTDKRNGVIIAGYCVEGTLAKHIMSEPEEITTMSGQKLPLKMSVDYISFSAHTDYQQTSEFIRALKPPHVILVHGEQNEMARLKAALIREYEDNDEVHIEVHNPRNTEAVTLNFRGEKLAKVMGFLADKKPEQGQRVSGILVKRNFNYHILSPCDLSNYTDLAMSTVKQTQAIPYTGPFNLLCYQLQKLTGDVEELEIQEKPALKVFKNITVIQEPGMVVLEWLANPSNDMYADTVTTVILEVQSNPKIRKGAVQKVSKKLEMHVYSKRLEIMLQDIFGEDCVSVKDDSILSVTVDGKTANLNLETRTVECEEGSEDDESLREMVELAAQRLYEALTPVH

[2] = molecular target: T2, cysteines in MDA-MB-231 and Ramos cells (Homo sapiens, UniProt Q5T0N5)
T2 sequence (Q5T0N5 1-605): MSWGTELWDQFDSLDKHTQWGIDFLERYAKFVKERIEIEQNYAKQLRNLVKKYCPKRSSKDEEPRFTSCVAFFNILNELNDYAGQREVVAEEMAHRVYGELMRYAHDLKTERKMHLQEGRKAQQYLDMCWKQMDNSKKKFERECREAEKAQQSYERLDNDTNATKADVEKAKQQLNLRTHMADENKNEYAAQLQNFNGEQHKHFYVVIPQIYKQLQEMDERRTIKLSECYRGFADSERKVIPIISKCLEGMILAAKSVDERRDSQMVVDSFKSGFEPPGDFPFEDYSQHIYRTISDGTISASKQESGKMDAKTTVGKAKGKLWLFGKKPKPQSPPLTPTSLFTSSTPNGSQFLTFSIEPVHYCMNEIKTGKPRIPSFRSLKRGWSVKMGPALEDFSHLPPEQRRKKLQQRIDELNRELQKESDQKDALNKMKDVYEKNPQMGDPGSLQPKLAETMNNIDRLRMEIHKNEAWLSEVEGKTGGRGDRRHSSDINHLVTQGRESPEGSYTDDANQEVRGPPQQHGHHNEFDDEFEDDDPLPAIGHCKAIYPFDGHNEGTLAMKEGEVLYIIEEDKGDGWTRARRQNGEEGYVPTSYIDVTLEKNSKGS

[3] = molecular target: T3, cysteines in MDA-MB-231 and Ramos cells (Homo sapiens, UniProt P35611)
T3 sequence (P35611 1-737): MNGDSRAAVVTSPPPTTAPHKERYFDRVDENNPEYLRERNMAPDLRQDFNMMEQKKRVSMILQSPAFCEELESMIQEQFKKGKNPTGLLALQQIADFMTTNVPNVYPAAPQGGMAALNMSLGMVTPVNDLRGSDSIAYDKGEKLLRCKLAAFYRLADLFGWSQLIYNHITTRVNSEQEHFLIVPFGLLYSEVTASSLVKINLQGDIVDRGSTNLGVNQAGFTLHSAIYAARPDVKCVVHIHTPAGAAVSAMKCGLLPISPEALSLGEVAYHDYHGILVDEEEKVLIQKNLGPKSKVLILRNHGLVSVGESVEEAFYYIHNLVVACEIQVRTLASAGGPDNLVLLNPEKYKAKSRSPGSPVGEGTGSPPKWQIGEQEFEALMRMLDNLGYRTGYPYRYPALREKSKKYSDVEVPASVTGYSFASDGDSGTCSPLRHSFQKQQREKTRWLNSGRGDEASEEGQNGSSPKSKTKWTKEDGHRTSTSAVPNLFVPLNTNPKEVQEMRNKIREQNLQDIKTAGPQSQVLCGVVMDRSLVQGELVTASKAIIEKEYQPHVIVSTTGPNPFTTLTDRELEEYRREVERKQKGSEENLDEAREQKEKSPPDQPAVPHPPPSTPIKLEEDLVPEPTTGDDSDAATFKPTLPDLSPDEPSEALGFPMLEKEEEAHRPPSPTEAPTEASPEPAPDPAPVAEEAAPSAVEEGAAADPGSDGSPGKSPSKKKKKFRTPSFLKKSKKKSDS

[4] = molecular target: T4, cysteines in MDA-MB-231 and Ramos cells (Homo sapiens, UniProt Q15233)
T4 sequence (Q15233 1-471): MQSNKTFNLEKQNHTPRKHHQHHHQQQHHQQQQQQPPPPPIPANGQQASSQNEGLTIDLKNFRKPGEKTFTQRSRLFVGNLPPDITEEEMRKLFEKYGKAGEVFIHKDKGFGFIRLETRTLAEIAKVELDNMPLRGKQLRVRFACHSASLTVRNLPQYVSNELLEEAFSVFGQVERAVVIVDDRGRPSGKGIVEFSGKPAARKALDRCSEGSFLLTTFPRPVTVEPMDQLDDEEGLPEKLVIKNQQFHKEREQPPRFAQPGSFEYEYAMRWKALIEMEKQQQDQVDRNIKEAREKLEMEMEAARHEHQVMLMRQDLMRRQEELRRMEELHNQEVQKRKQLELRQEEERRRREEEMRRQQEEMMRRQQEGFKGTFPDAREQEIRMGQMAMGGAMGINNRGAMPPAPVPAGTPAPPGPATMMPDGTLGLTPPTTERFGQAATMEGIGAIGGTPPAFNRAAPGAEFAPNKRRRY

SMILES | isoTOP-ABPP ratio Q9UKF6_C498 ([1]; 200 μM, insitu, 231) | isoTOP-ABPP ratio Q5T0N5_C69 ([2]; 200 μM, insitu, 231) | isoTOP-ABPP ratio P35611_C68 ([3]; 200 μM, insitu, 231) | isoTOP-ABPP ratio Q15233_C145 ([4]; 200 μM, insitu, 231) | also measured
COc1ccc2c(c1)CCCN2C(=O)CCl [compound 2] |  |  |  |  | isoTOP-ABPP reactivity Q9UKF6_C498 CPSF3 ([1]; 200 μM, insitu, 231): 6.2; isoTOP-ABPP reactivity Q5T0N5_C69 FNBP1L ([2]; 200 μM, insitu, 231): 20.0; isoTOP-ABPP reactivity P35611_C68 ADD1 ([3]; 200 μM, insitu, 231): 5.8
COc1ccc(C2CC(c3cccs3)=NN2C(=O)CCl)cc1 (stereo not shown) [compound 4] |  |  |  |  | isoTOP-ABPP reactivity Q15233_C145 NONO ([4]; 100 μM in situ 231): 1.6; isoTOP-ABPP reactivity Q9UKF6_C498 CPSF3 ([1]; 100 μM in situ 231): 3.5; isoTOP-ABPP reactivity Q5T0N5_C69 FNBP1L ([2]; 100 μM in situ 231): 20.0; isoTOP-ABPP reactivity P35611_C68 ADD1 ([3]; 100 μM in situ 231): 4.3
COc1cc2c(cc1OC)CN(C(=O)CCl)CC2 [compound 8] |  |  |  |  | isoTOP-ABPP reactivity Q15233_C145 NONO ([4]; 200 μM, insitu, 231): 12.0; isoTOP-ABPP reactivity Q9UKF6_C498 CPSF3 ([1]; 200 μM, insitu, 231): 20.0; isoTOP-ABPP reactivity Q5T0N5_C69 FNBP1L ([2]; 200 μM, insitu, 231): 3.6; isoTOP-ABPP reactivity P35611_C68 ADD1 ([3]; 200 μM, insitu, 231): 2.4
O=C(CCl)N1CCC(Cc2ccccc2)CC1 [compound 9] |  |  |  |  | isoTOP-ABPP reactivity Q15233_C145 NONO ([4]; 200 μM, insitu, 231): 1.4; isoTOP-ABPP reactivity P35611_C68 ADD1 ([3]; 200 μM, insitu, 231): 4.3
O=C(CCl)N1CCN(S(=O)(=O)c2ccccc2F)CC1 [compound 10] | 20.0 | 2.0 | 1.9 |  | isoTOP-ABPP ratio Q15233_C145 ([4]; 200 μM, insitu, ramos): 2.2; isoTOP-ABPP ratio Q9UKF6_C498 ([1]; 200 μM, insitu, ramos): 2.8
Cn1cc(S(=O)(=O)N2CCOCC2)cc1C(=O)NC(=O)CCl [compound 11] |  |  |  |  | isoTOP-ABPP ratio Q15233_C145 ([4]; 100 μM in situ 231): 1.2; isoTOP-ABPP ratio Q9UKF6_C498 ([1]; 100 μM in situ 231): 1.3; isoTOP-ABPP ratio Q5T0N5_C69 ([2]; 100 μM in situ 231): 1.3; isoTOP-ABPP ratio P35611_C68 ([3]; 100 μM in situ 231): 0.9
O=C(CCl)NC(=O)NC12CC3CC(CC(C3)C1)C2 [compound 12] | 4.1 | 20.0 | 3.6 | 2.4 | 
O=C(CCl)NCCc1c[nH]c2ccccc12 [compound 13] |  | 1.0 | 1.1 | 1.0 | isoTOP-ABPP ratio Q15233_C145 ([4]; 200 μM, insitu, ramos): 1.1; isoTOP-ABPP ratio Q9UKF6_C498 ([1]; 200 μM, insitu, ramos): 1.4; isoTOP-ABPP ratio P35611_C68 ([3]; 200 μM, insitu, ramos): 1.0
O=C(CCl)NC12CC3CC(CC(C3)C1)C2 [compound 21] | 1.4 | 0.8 | 0.8 |  | 
CC(C)CCOCCNC(=O)CCl [compound 27] | 1.5 | 0.6 | 0.9 | 1.2 | 
COc1ccccc1OCCNC(=O)CCl [compound 28] |  |  | 1.7 | 1.1 | 
O=C(CCl)N1CCN(CC(=O)N2CCOCC2)CC1 [compound 29] |  |  |  |  | isoTOP-ABPP ratio Q9UKF6_C498 ([1]; 200 μM, insitu, ramos): 2.3
C=CC(=O)N(Cc1cccnc1)c1cc(C(F)(F)F)cc(C(F)(F)F)c1 [compound 31] |  |  |  | 0.7 | isoTOP-ABPP ratio Q15233_C145 ([4]; 200 μM, insitu, ramos): 0.8
C=CC(=O)Nc1cc(F)c(N2CCN(C(=O)OC(C)(C)C)CC2)c(F)c1 [compound 38] |  | 1.5 | 1.4 | 0.9 | 
Cc1ccc(C=C(C#N)C(=O)NCCN2CCOCC2)cc1 [compound 41] | 1.0 | 0.6 | 0.9 | 1.1 | 
CC1CCc2ccccc2N1C(=O)CCl (stereo not shown) [compound 45] | 20.0 | 5.4 | 20.0 | 3.7 | 
O=C(CCl)Nc1cccc2ncccc12 [compound 51] |  | 1.7 | 1.0 | 1.6 | 
